In patent US20240041823A1, “USE OF MYCOLACTONE (MLN) AND DERIVATIVES THEREOF FOR TREATMENT OF MICROBIAL INFECTIONS” (priority 2022, published 2024):
Where “and” joins values, the source holds several entries; their conditions need not be identical. Equal values may be shown once. Entries after “also recorded” stand apart in the source; their conditions may differ. Read-outs that look alike come from different tables or passages of the source.

Tests used:
[1] = test system: immortalized Human fetal renal cell line HEK293; conditions: HEK293, maximum concentration tested 1.34 μM
[2] = intradermal injection; cited from earlier work
[3] = test system: SARS-CoV-2 Omicron strain; assay: microbe, parasite or virus in culture; type: cell-based; conditions: read-out: efficacy (viral titer reduction)
SARS-CoV-2 [4] = assay: Viral inhibition by Spike immunohistochemistry (IHC) assay in A549-ACE2 cells; type: cell-based; conditions: for IC50: read-out: IC-50, Anti-SARS-CoV-2; for 80% Inhibition of SARS-CoV-2: concentration giving 80% inhibition
SARS-CoV-2 [5] = type: cell-based
[6] = test system: Human hepatoma cell line Huh7.1; conditions: Huh7.1, maximum concentration tested 1.34 μM
SARS-CoV-2 Alpha strain = assay: microbe, parasite or virus in culture; type: cell-based; conditions: read-out: efficacy (viral titer reduction)
[7] = test system: A549, HEK293, and HUH7.1 cell lines
[8] = test system: Human alveolar cell line A549; conditions: A549, maximum concentration tested 1.34 μM
SARS-CoV-2 Delta strain = assay: microbe, parasite or virus in culture; type: cell-based; conditions: read-out: efficacy (viral titer reduction)
[9] = Severe acute respiratory syndrome coronavirus 2, plaque assay

For mycolactone [MLN], the Cytotoxicity [1] is listed as 40.30±3.6%, the “half-life in the periphery blood circulation” value [2] is listed as “short” and the IC50 ([3]; plaque assay) is listed as 7 nM. It also gave an IC50 (SARS-CoV-2 [4]; A549-ACE2 cells, Spike IHC) of 20 ± 6 nM, an inhibition (SARS-CoV-2 [4]; at 20 nM) of 90% and an average inhibition (SARS-CoV-2 [4]; at 30nM, IHC assay in triplicate) of 84%. The inhibition (SARS-CoV-2 [4]; at 42 nM) was 100%, the “80% Inhibition of SARS-CoV-2” value (SARS-CoV-2 [4]) was 0.03 µM and 0.03 ± 0.005 µM and the “viral inhibition against SARS-CoV-2” value (SARS-CoV-2 [4]; up to 60nM, IHC assay in triplicate) was 100%. For the same molecule, the “blocking of virus entry” value (SARS-CoV-2 [5]) was “complete blocking activity; also recorded: completely blocks; also recorded: complete prevention”, the “blocking of virus spread” value (SARS-CoV-2 [5]) was “complete blocking activity; also recorded: completely blocks; also recorded: complete prevention” and the Cytotoxicity [6] was 36.25±5.6%. For the same molecule, the IC50 (SARS-CoV-2 Alpha strain; plaque assay) was 20 nM, the “cytotoxicity IC50 breakpoint ratio versus anti-SARS-CoV-2 activity” value ([7]; 1.34 μM maximum concentration versus average IC50s) was “more than 65 ×” and the “cytotoxicity against human cell lines” value ([7]; in vitro) was “not cytotoxic”. For the same molecule, the Cytotoxicity [8] was 17.12±9.1% and the IC50 (SARS-CoV-2 Delta strain; plaque assay) was 15 nM.

For COc1cccc2[nH]c(C(=O)N[C@@H](CC(C)C)C(=O)N[C@@H](C[C@@H]3CCNC3=O)C(=O)CO)cc12 [PF-00835231, reference compound], the “80% Inhibition of SARS-CoV-2” value (SARS-CoV-2 [4]) was 0.68 µM, the “80% Inhibition of SARS-CoV-2” value (SARS-CoV-2 [4]; listed as PF-00835231 (Pfizer)) was 0.68 ± 0.023 µM and the IC50 (SARS-CoV-2 [4]) was 230 ± 30 nM.

CCC(CC)COC(=O)[C@H](C)N[P@](=O)(OC[C@H]1O[C@@](C#N)(c2ccc3c(N)ncnn23)[C@H](O)[C@@H]1O)Oc1ccccc1 [Remdesivir, reference compound] gave an IC50 [3, 9] of 125 nM, an IC50 (SARS-CoV-2 Alpha strain; [9]) of 248 nM and an IC50 (SARS-CoV-2 Delta strain; [9]) of 139 nM.
